Format in all cases: biochemical
One assay concerns the target PI3K β (Homo sapiens (Human), UniProt P42338). The assay is described as follows: PI 3-Kinase (human) HTRF assay, p110β/p85α.
Another assay addresses PI3K α (Homo sapiens (Human), UniProt P42336). The assay can be described thus: PI 3-Kinase (human) HTRF assay, p110α/p85α.
The target of a further assay is PI3K γ (Homo sapiens (Human), UniProt P48736). The assay can be described thus: PI 3-Kinase (human) HTRF assay, p110γ.
Another assay concerns the target mTORC (Homo sapiens (Human), UniProt P42345). The assay can be described thus: mTOR inhibition assay (radiometric or LanthaScreen TR-FRET).
A further assay has as its target PI3K δ (Homo sapiens (Human), UniProt O00329). The assay is described as follows: PI 3-Kinase (human) HTRF assay, p110δ/p85α.
Assay [1] in a line: PI 3-Kinase (human) HTRF assay, p110δ/p85α. As to conditions: read-out: PI3K γ IC50.

Where two headings read alike, the source gives them in different places.

mTORC, sequence (P42345 1360-2549): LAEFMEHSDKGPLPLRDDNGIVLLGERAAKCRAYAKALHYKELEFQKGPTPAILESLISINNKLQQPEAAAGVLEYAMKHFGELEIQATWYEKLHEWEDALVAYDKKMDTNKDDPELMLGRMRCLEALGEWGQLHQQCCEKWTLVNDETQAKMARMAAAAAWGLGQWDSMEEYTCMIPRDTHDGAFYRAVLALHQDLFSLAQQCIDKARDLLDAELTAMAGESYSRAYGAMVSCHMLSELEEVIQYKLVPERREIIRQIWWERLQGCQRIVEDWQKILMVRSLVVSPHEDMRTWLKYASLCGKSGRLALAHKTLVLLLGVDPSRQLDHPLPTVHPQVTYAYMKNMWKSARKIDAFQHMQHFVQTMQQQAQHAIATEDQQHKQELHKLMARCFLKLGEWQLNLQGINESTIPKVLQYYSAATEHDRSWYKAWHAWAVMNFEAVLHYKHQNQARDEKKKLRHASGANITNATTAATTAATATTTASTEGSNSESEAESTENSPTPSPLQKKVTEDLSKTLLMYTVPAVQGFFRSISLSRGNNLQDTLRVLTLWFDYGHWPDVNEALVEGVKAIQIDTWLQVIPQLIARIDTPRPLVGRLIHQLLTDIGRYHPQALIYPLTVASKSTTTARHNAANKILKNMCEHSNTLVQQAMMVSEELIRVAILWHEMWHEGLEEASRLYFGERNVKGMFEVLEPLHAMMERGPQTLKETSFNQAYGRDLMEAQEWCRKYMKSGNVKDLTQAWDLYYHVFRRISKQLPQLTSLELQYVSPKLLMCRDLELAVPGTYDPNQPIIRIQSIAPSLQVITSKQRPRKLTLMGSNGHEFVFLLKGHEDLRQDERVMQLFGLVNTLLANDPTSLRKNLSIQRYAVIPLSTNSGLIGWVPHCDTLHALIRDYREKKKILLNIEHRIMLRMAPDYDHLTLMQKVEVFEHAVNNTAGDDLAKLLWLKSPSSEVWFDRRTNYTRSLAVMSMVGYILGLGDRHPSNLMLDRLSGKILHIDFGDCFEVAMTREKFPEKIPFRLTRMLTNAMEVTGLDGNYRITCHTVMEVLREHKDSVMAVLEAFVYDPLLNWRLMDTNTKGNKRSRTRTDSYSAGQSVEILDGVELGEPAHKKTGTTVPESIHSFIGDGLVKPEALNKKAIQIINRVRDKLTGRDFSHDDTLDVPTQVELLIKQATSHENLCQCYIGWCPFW
PI3K β, sequence (P42338 whole entry): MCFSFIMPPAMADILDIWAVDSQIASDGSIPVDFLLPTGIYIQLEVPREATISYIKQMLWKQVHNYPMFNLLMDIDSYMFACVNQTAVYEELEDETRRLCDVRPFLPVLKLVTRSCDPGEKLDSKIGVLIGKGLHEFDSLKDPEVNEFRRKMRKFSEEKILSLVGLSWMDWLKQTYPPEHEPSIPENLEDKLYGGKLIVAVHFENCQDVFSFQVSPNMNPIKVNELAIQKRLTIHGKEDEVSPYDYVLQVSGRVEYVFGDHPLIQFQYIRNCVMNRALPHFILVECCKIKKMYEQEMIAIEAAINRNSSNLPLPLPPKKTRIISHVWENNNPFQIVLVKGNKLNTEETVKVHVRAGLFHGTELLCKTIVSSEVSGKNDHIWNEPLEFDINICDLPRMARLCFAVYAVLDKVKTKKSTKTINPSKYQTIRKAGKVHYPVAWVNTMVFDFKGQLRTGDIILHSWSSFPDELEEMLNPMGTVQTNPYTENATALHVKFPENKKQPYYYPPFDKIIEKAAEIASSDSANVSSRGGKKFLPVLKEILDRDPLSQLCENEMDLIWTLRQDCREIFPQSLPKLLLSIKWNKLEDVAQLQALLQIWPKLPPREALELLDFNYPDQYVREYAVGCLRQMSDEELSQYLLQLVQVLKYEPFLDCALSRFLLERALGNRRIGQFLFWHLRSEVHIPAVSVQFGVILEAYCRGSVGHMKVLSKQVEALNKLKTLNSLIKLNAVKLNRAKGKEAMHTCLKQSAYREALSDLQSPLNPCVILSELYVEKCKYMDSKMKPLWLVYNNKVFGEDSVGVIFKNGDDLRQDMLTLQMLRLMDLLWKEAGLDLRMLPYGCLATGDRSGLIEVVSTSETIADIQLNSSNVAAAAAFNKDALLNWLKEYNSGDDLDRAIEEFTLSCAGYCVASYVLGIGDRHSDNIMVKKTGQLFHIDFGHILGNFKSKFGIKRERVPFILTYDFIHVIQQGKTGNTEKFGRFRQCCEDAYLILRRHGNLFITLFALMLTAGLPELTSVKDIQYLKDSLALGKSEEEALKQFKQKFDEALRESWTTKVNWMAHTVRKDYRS
PI3K β, sequence (P27986 whole entry partner): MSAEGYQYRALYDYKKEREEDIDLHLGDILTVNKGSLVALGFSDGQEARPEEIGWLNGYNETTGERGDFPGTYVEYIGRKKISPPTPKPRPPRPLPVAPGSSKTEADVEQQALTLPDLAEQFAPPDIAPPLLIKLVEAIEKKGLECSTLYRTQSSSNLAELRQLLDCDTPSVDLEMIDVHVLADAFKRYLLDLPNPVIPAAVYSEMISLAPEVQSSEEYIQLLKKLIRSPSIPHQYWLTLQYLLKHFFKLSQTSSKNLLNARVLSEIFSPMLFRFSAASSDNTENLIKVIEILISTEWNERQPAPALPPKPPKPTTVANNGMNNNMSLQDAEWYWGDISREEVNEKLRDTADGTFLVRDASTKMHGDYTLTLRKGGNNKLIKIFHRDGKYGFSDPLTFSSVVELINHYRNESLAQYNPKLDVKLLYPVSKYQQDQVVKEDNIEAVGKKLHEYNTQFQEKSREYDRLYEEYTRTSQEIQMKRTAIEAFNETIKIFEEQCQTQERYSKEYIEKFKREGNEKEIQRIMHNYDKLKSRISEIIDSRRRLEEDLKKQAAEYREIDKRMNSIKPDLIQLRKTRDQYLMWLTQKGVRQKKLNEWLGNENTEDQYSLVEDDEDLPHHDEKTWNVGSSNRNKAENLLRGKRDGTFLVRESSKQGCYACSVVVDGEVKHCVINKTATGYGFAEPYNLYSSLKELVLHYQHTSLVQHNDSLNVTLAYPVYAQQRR
PI3K α, sequence (P42336 whole entry): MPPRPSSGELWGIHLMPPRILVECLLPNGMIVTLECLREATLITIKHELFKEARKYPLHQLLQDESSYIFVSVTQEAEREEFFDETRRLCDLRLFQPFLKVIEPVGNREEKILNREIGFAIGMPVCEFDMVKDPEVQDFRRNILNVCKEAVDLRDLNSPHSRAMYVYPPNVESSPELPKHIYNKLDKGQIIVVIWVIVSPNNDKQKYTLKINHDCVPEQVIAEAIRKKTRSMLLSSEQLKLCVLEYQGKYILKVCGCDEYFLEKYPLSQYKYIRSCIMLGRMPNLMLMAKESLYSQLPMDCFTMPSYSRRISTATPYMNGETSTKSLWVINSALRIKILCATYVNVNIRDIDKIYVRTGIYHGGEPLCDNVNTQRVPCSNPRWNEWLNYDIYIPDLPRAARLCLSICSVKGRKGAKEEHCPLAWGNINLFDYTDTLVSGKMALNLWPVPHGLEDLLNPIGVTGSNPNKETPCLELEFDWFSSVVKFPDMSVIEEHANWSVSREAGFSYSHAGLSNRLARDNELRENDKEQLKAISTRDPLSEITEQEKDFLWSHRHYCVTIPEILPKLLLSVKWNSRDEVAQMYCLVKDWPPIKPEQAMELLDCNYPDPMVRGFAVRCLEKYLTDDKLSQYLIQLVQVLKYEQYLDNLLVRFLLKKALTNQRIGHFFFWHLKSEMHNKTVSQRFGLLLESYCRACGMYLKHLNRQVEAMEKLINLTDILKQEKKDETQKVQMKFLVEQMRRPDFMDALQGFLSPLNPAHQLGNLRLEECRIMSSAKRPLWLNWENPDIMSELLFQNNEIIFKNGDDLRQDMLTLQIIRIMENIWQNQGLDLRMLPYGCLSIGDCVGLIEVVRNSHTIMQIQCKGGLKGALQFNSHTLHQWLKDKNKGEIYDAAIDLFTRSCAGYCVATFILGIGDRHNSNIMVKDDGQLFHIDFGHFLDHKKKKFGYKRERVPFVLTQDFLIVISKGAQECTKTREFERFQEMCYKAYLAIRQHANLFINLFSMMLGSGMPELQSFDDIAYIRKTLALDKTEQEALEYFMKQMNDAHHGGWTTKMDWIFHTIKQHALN
PI3K α, sequence (P27986 whole entry partner): as the sequence (P27986 whole entry partner) above
Experimental for PI3K γ: An exemplary system is PI 3-Kinase (human) HTRF™ Assay from Upstate. […] Briefly, the assay is a time resolved FRET assay that indirectly measures PIP3 product formed by the activity of a PI3-K. The kinase reaction is performed in a microtitre plate (e.g., a 384 well microtitre plate). The total reaction volume is approximately 20 ul per well. In the first step, each well receives 2 ul of test compound in 20% dimethylsulphoxide resulting in a 2% DMSO final concentration. Next, approximately 14.5 ul of a kinase/PIP2 mixture (diluted in 1× reaction buffer) is added per well for a final concentration of 0.25-0.3 ug/ml kinase and 10 μM PIP2. The plate is sealed and incubated for 15 minutes at room temperature. To start the reaction, 3.5 ul of ATP (diluted in 1× reaction buffer) is added per well for a final concentration of 10 μM ATP. The plate is sealed and incubated for 1 hour at room temperature. The reaction is stopped by adding 5 ul of Stop Solution per well and then 5 ul of Detection Mix is added per well. The plate is sealed, incubated for 1 hour at room temperature, and then read on an appropriate plate reader. Data is analyzed and IC50s are generated using GraphPad Prism 5. For PI3K α, β, δ, and γ, the nM concentration of inhibitor to reach IC50 is provided.

For the molecule `CC(C)N1CCC(n2cnc3ccc(-c4ccc5oc(N)nc5c4)cc3c2=O)CC1`, the IC50 against PI3K β is below 10 µM; against PI3K α, below 0.1 µM; at PI3K γ (read-out: PI3K γ IC50), below 10 µM; on mTORC, below 10 µM; on PI3K δ, above 10 µM.

In the case of `CN1CCN(C2CN(c3cnc4ccc(-c5ccc6oc(N)nc6c5)nc4c3)C2)CC1=O`, the IC50 against PI3K β is below 10 µM; at PI3K α, below 0.1 µM; on PI3K γ (read-out: PI3K γ IC50), below 0.1 µM; on mTORC it was below 10 µM; at PI3K δ, below 1 µM.

On to `N#Cc1cnc2ccc(-c3ccc4oc(N)nc4c3)cc2c1-c1ccncc1` [Compound 46], for which the IC50 against PI3K α, at PI3K γ (read-out: PI3K γ IC50), against mTORC and at PI3K δ was below 0.1 µM each time.

As for `Nc1nc2cc(-c3ccc4ncc(N5CC(N6CCN(CCO)CC6)C5)nc4n3)ccc2o1`, the half-maximal inhibitory concentration (IC50) is below 10 µM against PI3K β; below 0.1 µM against PI3K α; below 10 µM on PI3K γ (read-out: PI3K γ IC50); above 10 µM on mTORC; below 10 µM against PI3K δ.

As to `CN1CCN(c2ccc(-c3cnc4ccc(-c5ccc6oc(N)nc6c5)cn34)cn2)CC1` [Compound 42], the IC50 on PI3K α is below 0.1 µM; at PI3K γ (read-out: PI3K γ IC50), below 1 µM; on mTORC, above 10 µM; on PI3K δ, below 1 µM.

Take `Nc1nc2cc(-c3ccc4ncc(N5CCN(C(=O)C6(N)CC6)CC5)nc4n3)ccc2o1`: the IC50 at PI3K β is below 10 µM; against PI3K α, below 0.1 µM; at PI3K γ (read-out: PI3K γ IC50), below 0.1 µM; against mTORC it was below 10 µM; against PI3K δ, below 10 µM.

Regarding `Nc1nc2cc(-c3ccc4ncnc(OC5CCOCC5)c4c3)ccc2o1` [Compound 47], the IC50 is below 1 µM at PI3K β; below 0.1 µM at PI3K α; below 1 µM at PI3K γ (read-out: PI3K γ IC50); below 0.1 µM against mTORC; below 1 µM on PI3K δ.

As for `Nc1nc2cc(-c3ccc4ncc(-c5ccnc(N6CCOCC6)c5)n4c3)ccc2o1` [Compound 52], the IC50 against PI3K α is below 0.1 µM; at PI3K γ (read-out: PI3K γ IC50), below 0.1 µM; at mTORC, below 10 µM; on PI3K δ, below 0.1 µM.

In the case of `Nc1nc2cc(-c3ccc4ncc(N5CC(N6CCN(CC7CC7)CC6)C5)nc4n3)ccc2o1`, the 50% inhibitory concentration (IC50) against PI3K β was below 10 µM; at PI3K α, below 0.1 µM; at PI3K γ (read-out: PI3K γ IC50), below 10 µM; against mTORC it was above 10 µM; at PI3K δ it was below 10 µM.

As for `C[C@H]1CN(C2CN(c3cnc4ccc(-c5ccc6oc(N)nc6c5)nc4n3)C2)CCN1`, the IC50 was above 10 µM against PI3K β; below 0.1 µM at PI3K α; below 10 µM on PI3K γ (read-out: PI3K γ IC50); below 10 µM on mTORC; below 10 µM on PI3K δ.

Consider `C[C@@H]1CN(C2CN(c3cnc4ccc(-c5ccc6oc(N)nc6c5)nc4c3)C2)CCN1C`, for which the IC50 is below 10 µM against PI3K β, below 0.1 µM at PI3K α, above 10 µM at mTORC and below 1 µM at PI3K δ.

As to `CC1(C)CN(C2CN(c3cnc4ccc(-c5ccc6oc(N)nc6c5)nc4c3)C2)CCN1`, the IC50 was below 10 µM on PI3K β; below 0.1 µM at PI3K α; below 1 µM on PI3K γ (read-out: PI3K γ IC50); above 10 µM against mTORC; below 1 µM against PI3K δ.

For the molecule `C[C@H]1CN(C2CN(c3cnc4ccc(-c5ccc6oc(N)nc6c5)nc4c3)C2)CCN1`, the IC50 against PI3K β was below 10 µM; on PI3K α it was below 0.1 µM; at PI3K γ (read-out: PI3K γ IC50), below 10 µM; on mTORC, above 10 µM; on PI3K δ it was below 1 µM.

For the molecule `Nc1ccc2cc(-c3ccc4nccc(-c5ccncc5)c4c3)ccc2n1` [Compound 5], the IC50 is above 10 µM against PI3K β; below 1 µM against PI3K α; below 1 µM on PI3K γ (read-out: PI3K γ IC50); below 1 µM against mTORC; below 10 µM against PI3K δ.

As for `CN1CCN(C(=O)c2cnc3ccc(-c4ccc5oc(N)nc5c4)cn23)CC1` [Compound 44], the IC50 is below 0.1 µM at PI3K α, below 10 µM on PI3K γ (read-out: PI3K γ IC50), below 10 µM at mTORC and below 10 µM at PI3K δ.

For `Cn1cc(-c2cnc3ccc(-c4ccc5oc(N)nc5c4)cn23)cn1` [Compound 41], the IC50 against PI3K α was below 0.1 µM; at PI3K γ (read-out: PI3K γ IC50), below 1 µM; on mTORC, below 10 µM; against PI3K δ, below 1 µM.

Take `CN1CCC(n2cnc3ccc(-c4ccc5oc(N)nc5c4)cc3c2=O)CC1` [Compound 36]: the IC50 is below 0.1 µM at PI3K α, above 10 µM on PI3K γ (read-out: PI3K γ IC50), below 10 µM at mTORC and below 10 µM at PI3K δ.

On to `CC(C)[C@@H](N)C(=O)N1CCN(c2cnc3ccc(-c4ccc5oc(N)nc5c4)cc3n2)CC1`, for which the 50% inhibitory concentration (IC50) against PI3K β was below 1 µM; at PI3K α, below 0.1 µM; at PI3K γ (read-out: PI3K δ IC50), below 1 µM; against mTORC, below 10 µM; in assay [1], below 1 µM.

Consider `CN(C)[C@@H]1CCN(c2cnc3ccc(-c4ccc5oc(N)nc5c4)cc3n2)C1`, for which the IC50 is below 0.1 µM on PI3K β; below 0.1 µM against PI3K α; below 10 µM at PI3K γ (read-out: PI3K δ IC50); below 1 µM at mTORC; below 10 µM in assay [1].

Take `Nc1nc2cc(-c3ccc4nccn4c3)ccc2o1` [Compound 40]: the IC50 at PI3K α is below 10 µM; at PI3K γ (read-out: PI3K γ IC50), below 10 µM; at mTORC, below 10 µM; at PI3K δ, above 10 µM.

As to `CN1CCC(Nc2ncnc3ccc(-c4ccc5oc(N)nc5c4)cc23)CC1` [Compound 35], the IC50 against PI3K α was below 0.1 µM; on PI3K γ (read-out: PI3K γ IC50) it was below 0.1 µM; at mTORC, below 10 µM; against PI3K δ it was below 0.1 µM.

As for `CN1CCN(C2CN(c3cnc4ccc(-c5ccc6oc(N)nc6c5)cc4n3)C2)CC1`, the 50% inhibitory concentration (IC50) is below 10 µM on PI3K β; below 0.1 µM on PI3K α; below 10 µM at PI3K γ (read-out: PI3K δ IC50); below 10 µM on mTORC; below 10 µM in assay [1].

For the molecule `CS(=O)(=O)Nc1cc(-c2ccc3ncc(C(=O)N4CCOCC4)n3c2)cnc1Cl`, the IC50 (against PI3K β; on PI3K α; on PI3K γ (read-out: PI3K δ IC50); at mTORC; in assay [1]) was below 0.1 µM in each case.

For `CC(=O)Nc1cn2cc(-c3ccc4oc(N)nc4c3)ccc2n1`, the IC50 was below 1 µM against PI3K β; below 0.1 µM against PI3K α; below 0.1 µM on PI3K γ (read-out: PI3K δ IC50); below 1 µM at mTORC; below 0.1 µM in assay [1].

Regarding `Nc1nc2cc(-c3ccc4ncc(-c5ccc6nc(N)oc6c5)n4c3)ccc2o1` [Compound 50], the IC50 is below 0.1 µM at PI3K α, below 0.1 µM on PI3K γ (read-out: PI3K γ IC50), above 10 µM on mTORC and below 10 µM against PI3K δ.

With `C[C@H]1CN(C2CN(c3cnc4ccc(-c5ccc6oc(N)nc6c5)cc4n3)C2)CCN1`, the IC50 on PI3K β is below 10 µM; on PI3K α it was below 0.1 µM; on PI3K γ (read-out: PI3K δ IC50), above 10 µM; against mTORC it was above 10 µM; in assay [1] it was below 10 µM.

Consider `Cn1cc(-c2ccnc3ccc(-c4ccc5oc(N)nc5c4)cc23)cn1` [Compound 26], for which the IC50 was below 0.1 µM against PI3K α, below 0.1 µM at PI3K γ (read-out: PI3K γ IC50), below 1 µM against mTORC and below 0.1 µM against PI3K δ.

As to `Nc1nc2cc(-c3ccc4ncc(N5CCNC(C(F)(F)F)C5)nc4c3)ccc2o1` (stereo not drawn), the IC50 was below 1 µM against PI3K β; below 0.1 µM at PI3K α; below 1 µM at PI3K γ (read-out: PI3K δ IC50); below 1 µM against mTORC; below 10 µM in assay [1].

With `Nc1nc2cc(-c3ccc4ncc(OC5CCOCC5)nc4c3)ccc2o1` [Compound 49], the IC50 on PI3K α is below 0.1 µM; at PI3K γ (read-out: PI3K γ IC50) it was below 1 µM; against mTORC it was below 10 µM; against PI3K δ, below 10 µM.

Take `Nc1nc2cc(-c3ccc4ncn(C5CCOCC5)c(=O)c4c3)ccc2o1`: the IC50 against PI3K α is below 1 µM; on PI3K γ (read-out: PI3K γ IC50), above 10 µM; against mTORC it was above 10 µM; on PI3K δ it was above 10 µM.

Turning to `Nc1nc2cc(-c3ccc4ncc(N5CCN(C(=O)[C@@H](N)CO)CC5)nc4c3)ccc2o1`, the 50% inhibitory concentration (IC50) at PI3K β is below 1 µM; at PI3K α, below 0.1 µM; at PI3K γ (read-out: PI3K δ IC50) it was below 10 µM; against mTORC it was below 10 µM; in assay [1] it was below 10 µM.

On to `CN1CCN(c2cnc3ccc(-c4ccc5oc(N)nc5c4)cc3n2)CC1=O`, for which the IC50 at PI3K β was below 1 µM; at PI3K α, below 0.1 µM; at PI3K γ (read-out: PI3K δ IC50) it was below 1 µM; at mTORC, below 10 µM; in assay [1] it was below 10 µM.

In the case of `C[C@H]1COCCN1C1CN(c2cnc3ccc(-c4ccc5oc(N)nc5c4)nc3n2)C1`, the 50% inhibitory concentration (IC50) is above 10 µM against PI3K β, below 0.1 µM against PI3K α, above 10 µM on mTORC and below 10 µM on PI3K δ.

Take `O=C(c1cnc2ccc(-c3cnc(Cl)c(NS(=O)(=O)c4ccc(F)cc4F)c3)cn12)N1CCOCC1`: the half-inhibitory concentration (IC50) on PI3K β was below 0.1 µM; against PI3K α, below 0.1 µM; on PI3K γ (read-out: PI3K δ IC50) it was below 0.1 µM; at mTORC, below 1 µM; in assay [1] it was below 0.1 µM.

On to `CC1(C)CN(C2CN(c3cnc4ccc(-c5ccc6oc(N)nc6c5)cc4n3)C2)CCN1`, for which the IC50 was below 1 µM against PI3K β; below 0.1 µM at PI3K α; below 1 µM on PI3K γ (read-out: PI3K δ IC50); below 0.1 µM on mTORC; below 1 µM in assay [1].

`Nc1nc2cc(-c3ccc4ncc(N5CC(N6CCN(C7CC7)CC6)C5)nc4c3)ccc2o1`: the half-inhibitory concentration (IC50) on PI3K β was below 10 µM; at PI3K α it was below 0.1 µM; at PI3K γ (read-out: PI3K δ IC50) it was below 10 µM; against mTORC it was below 10 µM; in assay [1], below 10 µM.

In the case of `C[C@@H]1CN(C(=O)C2CN(c3cnc4ccc(-c5ccc6oc(N)nc6c5)cc4n3)C2)CCN1`, the IC50 against PI3K β was below 10 µM; at PI3K α, below 0.1 µM; at PI3K γ (read-out: PI3K δ IC50) it was below 1 µM; on mTORC, below 10 µM; in assay [1], below 1 µM.

The record behind these values is patent publication US9682141B2, “Combination of kinase inhibitors and uses thereof” (INTELLIKINE LLC, priority 2011, dated 2017).
